Measured values taken from patent US20240115547A1, “PSYCHOTROPIC AGENTS AND USES THEREOF” (LB PHARMACEUTICALS INC., priority 2021, published 2024).
Where two headings read alike, the source gives them in different places.

How the values were obtained:
[1] = tested on: dopamine D2/D3; assay: D2/D3 RO by dynamic 11C raclopride PET after oral LB-102 in healthy volunteers (Example 1); type: in vivo, human
[2] = Demethylation of LB-102 to amisulpride in preclinical animal models; type: in vivo
[3] = PK analysis of LB-102 in healthy human subjects, single and multiple ascending doses (Example 2); type: in vivo; conditions: for half-life / Cmax / Tmax: both sexes, plasma, oral
Experimental: Healthy females and males between 18 and 55 years of age with BMI≥18 and ≤30 kg/m2 were enrolled in the study. Exclusion criteria included: history or presence of psychiatric disorder, drug or alcohol abuse, history of QT prolongation or dysrhythmia, fasting blood glucose level of 126 mg/dL, or a known allergy to the drug or its metabolites. The study was planned as a two part study. Part A was comprised of 5 single ascending dose groups, each of 8 subjects. Part B was comprised of 3 multiple ascending doses, two doses a day for 7 days ([…] doses in total) each of 8 subjects. All subjects were randomized 3:1 drug:placebo. The primary endpoint of the study was safety, with pharmacokinetics as a secondary objective.
Plasma concentrations of LB-102 were obtained as a function of time for single oral administration of LB-102 to human subjects at 10 mg (larger cross), 50 mg (triangle), 100 mg (square), 150 mg (smaller cross), and 200 mg (diamond), respectively, are further provided in FIG. 3.

[4] = 50 mg LB102 oral, 2.5 h after admin
[5] = 50 mg LB102 oral, 7.5 h after admin
[6] = 50 mg LB102 oral, 23.5 h after admin
[7] = 100 mg LB102 oral, 2.5 h after admin
[8] = 100 mg LB102 oral, 7.5 h after admin
[9] = 100 mg LB102 oral, 23.5 h after admin

- demethylated to amisulpride [2]: up to 50%
- AUC0-inf D1 ([3]; 50 mg every 12 hours, D1, mean (SD)): 1012.6 (100.4) ngh/mL
- AUC0-inf D7 ([3]; 50 mg every 12 hours, D7, mean (SD)): 2489.1 (312.4) ngh/mL
- CL/F ([3]; 50 mg every 12 hours, mean (SD)): 33.8 (3.1) L/h
- AUC relative to AUC of 50 mg amisulpride ([3]; 50 mg oral LB-102 vs published 50 mg amisulpride): about 2.5 times
- AUC0-inf D1 ([3]; 75 mg every 12 hours, D1, mean (SD)): 1777.9 (309.0) ngh/mL
- CL/F ([3]; 75 mg every 12 hours, mean (SD)): 34.9 (8.8) L/h
- AUC0-inf D1 ([3]; 100 mg every 12 hours, D1, mean (SD)): 2152.9 (439.9) ngh/mL
- accumulation across dose levels ([3]; MAD portion of the study): slight to moderate accumulation
- half-life ([3]; human, 10 mg, single administration 10 mg, mean (SD), read-out: T1/2 (converted)): 822 min
- Cmax ([3]; human, 10 mg, single administration 10 mg, mean, read-out: Cmax): 24.1 ng/mL
- Tmax ([3]; human, 10 mg, single administration 10 mg, read-out: Tmax): 3 h
- Cmax ([3]; human, 50 mg, 50 mg every 12 hours, D1, mean (SD), read-out: Cmax D1): 126 ng/mL
- half-life ([3]; human, 50 mg, 50 mg every 12 hours, D1, mean (SD), read-out: T1/2 D1 (converted)): 252 min
- Tmax ([3]; human, 50 mg, 50 mg every 12 hours, D1, read-out: Tmax D1): 2.5 h
- Cmax ([3]; human, 50 mg, 50 mg every 12 hours, D7, mean (SD), read-out: Cmax D7): 224 ng/mL
- half-life ([3]; human, 50 mg, 50 mg every 12 hours, D7, mean (SD), read-out: T1/2 D7 (converted)): 858 min
- Tmax ([3]; human, 50 mg, 50 mg every 12 hours, D7, read-out: Tmax D7): 2.5 h
- half-life ([3]; human, 50 mg, single administration 50 mg, mean (SD), read-out: T1/2 (converted)): 714 min
- Cmax ([3]; human, 50 mg, single administration 50 mg, mean, read-out: Cmax): 176 ng/mL
- Tmax ([3]; human, 50 mg, single administration 50 mg, read-out: Tmax): 3 h
- Cmax ([3]; human, 75 mg, 75 mg every 12 hours, D1, mean (SD), read-out: Cmax D1): 267 ng/mL
- half-life ([3]; human, 75 mg, 75 mg every 12 hours, D1, mean (SD), read-out: T1/2 D1 (converted)): 240 min
- Tmax ([3]; human, 75 mg, 75 mg every 12 hours, D1, read-out: Tmax D1): 3 h
- Cmax ([3]; human, 75 mg, 75 mg every 12 hours, D7, mean (SD), read-out: Cmax D7): 309 ng/mL
- Tmax ([3]; human, 75 mg, 75 mg every 12 hours, D7, read-out: Tmax D7): 2 h
- Cmax ([3]; human, 100 mg, 100 mg every 12 hours, D1, mean (SD), read-out: Cmax D1): 325 ng/mL
- half-life ([3]; human, 100 mg, 100 mg every 12 hours, D1, mean (SD), read-out: T1/2 D1 (converted)): 247 min
- Tmax ([3]; human, 100 mg, 100 mg every 12 hours, D1, read-out: Tmax D1): 2.5 h
- half-life ([3]; human, 100 mg, single administration 100 mg, mean (SD), read-out: T1/2 (converted)): 846 min
- Cmax ([3]; human, 100 mg, single administration 100 mg, mean, read-out: Cmax): 348 ng/mL
- Tmax ([3]; human, 100 mg, single administration 100 mg, read-out: Tmax): 3 h
- half-life ([3]; human, 150 mg, single administration 150 mg, mean (SD), read-out: T1/2 (converted)): 720 min
- Cmax ([3]; human, 150 mg, single administration 150 mg, mean, read-out: Cmax): 596 ng/mL
- Tmax ([3]; human, 150 mg, single administration 150 mg, read-out: Tmax): 3 h
- half-life ([3]; human, 200 mg, single administration 200 mg, mean (SD), read-out: T1/2 (converted)): 780 min
- Cmax ([3]; human, 200 mg, single administration 200 mg, mean, read-out: Cmax): 976 ng/mL
- Tmax ([3]; human, 200 mg, single administration 200 mg, read-out: Tmax): 3 h
- metabolism of LB-102 to amisulpride ([3]; human (FIG. 2)): < 3%
- increase of exposure with dose ([3]; oral dosing, human): slightly greater than dose proportional
- absorption ([3]; orally dosed, human): rapidly absorbed
- AUC0-inf ([3]; single administration 10 mg, mean): 252.6 ngh/mL
- CL/F ([3]; single administration 10 mg, mean (SD)): 42.4 (12.6) L/h
- AUC0-inf ([3]; single administration 50 mg, mean): 1595.9 ngh/mL
- CL/F ([3]; single administration 50 mg, mean (SD)): 31.7 (3.8) L/h
- AUC0-inf ([3]; single administration 100 mg, mean): 2809.8 ngh/mL
- CL/F ([3]; single administration 100 mg, mean (SD)): 36.6 (6.9) L/h
- AUC0-inf ([3]; single administration 150 mg, mean): 4636.6 ngh/mL
- CL/F ([3]; single administration 150 mg, mean (SD)): 33.1 (5.3) L/h
- AUC0-inf ([3]; single administration 200 mg, mean): 7002.1 ngh/mL
- CL/F ([3]; single administration 200 mg, mean (SD)): 28.9 (3.4) L/h
- AUC ([3]; single oral administration of 50 mg to human subjects (FIG. 4B)): 1,595 ngh/mL
SMILES: CCN1CCCC1CNC(=O)c1cc(S(=O)(=O)CC)c(NC)cc1OC (stereo not shown) [LB-102]
- Caudate % RO [1, 4]: 26%
- Putamen % RO [1, 4]: 22%
- Caudate % RO [1, 5]: 43%
- Putamen % RO [1, 5]: 36%
- Caudate % RO [1, 6]: 50%
- Putamen % RO [1, 6]: 39%
- Caudate % RO [1, 7]: 48%
- Putamen % RO [1, 7]: 42%
- Caudate % RO [1, 8]: 77%
- Putamen % RO [1, 8]: 71%
- Caudate % RO [1, 9]: 74%
- Putamen % RO [1, 9]: 67%
- dopamine D2/D3 RO in caudate/putamen ([1]; single oral dose of 50 mg, human subjects (FIG. 1A)): about 50%
- dopamine D2/D3 RO in caudate/putamen ([1]; single oral dose of 100 mg, human subjects (FIG. 1B)): ~75%
- trough concentrations ([3]; MAD portion of the study): plateaued prior to the morning dose on Day 4
